# Laboratory results published in ChEMBL document CHEMBL1201862, “PubChem BioAssay data set” (2004).
#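 Tested at 5 concentrations; 48 h exposure; 96-well plates; endpoints linearly interpolated, else capped at highest concentration. GI50 = concentration required for 50% inhibition of growth.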 Calls of active or inactive are those of the source. No stated cut-off is given here; in the data, active = GI50 up to about 1.1 µM and inactive = higher.
# Key:
# Assay in all cases: NCI anticancer screen, dose series, 48 h
# 786-0 = system: 786-0
# A498 = system: A498
# A549 = system: A549
# ACHN = system: ACHN
# BT-549 = system: BT-549
# CAKI-1 = system: CAKI-1
# CCRF-CEM = system: CCRF-CEM
# COLO 205 = system: COLO 205
# DU-145 = system: DU-145
# EKVX = system: EKVX
# HCC 2998 = system: HCC 2998
# HCT-116 = system: HCT-116
# HCT-15 = system: HCT-15
# HL-60 = system: HL-60
# HOP-62 = system: HOP-62
# HOP-92 = system: HOP-92
# HT-29 = system: HT-29
# Hs-578T = system: Hs-578T
# IGROV-1 = system: IGROV-1
# K562 = system: K562
# KM12 = system: KM12
# LOX IMVI = system: LOX IMVI
# M14 = system: M14
# MCF7 = system: MCF7
# MDA-MB-231 = system: MDA-MB-231
# MDA-MB-435 = system: MDA-MB-435
# MDA-N = system: MDA-N
# MOLT-4 = system: MOLT-4
# Malme-3M = system: Malme-3M
# NCI-H226 = system: NCI-H226
# NCI-H23 = system: NCI-H23
# NCI-H460 = system: NCI-H460
# NCI-H522 = system: NCI-H522
# NCI/ADR-RES = system: NCI/ADR-RES
# OVCAR-3 = system: OVCAR-3
# OVCAR-4 = system: OVCAR-4
# OVCAR-5 = system: OVCAR-5
# OVCAR-8 = system: OVCAR-8
# PC-3 = system: PC-3
# RPMI-8226 = system: RPMI-8226
# RXF 393 = system: RXF 393
# SF-268 = system: SF-268
# SF-295 = system: SF-295
# SF-539 = system: SF-539
# SK-MEL-28 = system: SK-MEL-28
# SK-MEL-2 = system: SK-MEL-2
# SK-MEL-5 = system: SK-MEL-5
# SK-OV-3 = system: SK-OV-3
# SN12C = system: SN12C
# SNB-19 = system: SNB-19
# SNB-75 = system: SNB-75
# SR = system: SR
# SW-620 = system: SW-620
# T47D = system: T47D
# TK-10 = system: TK-10
# U-251 = system: U-251
# UACC-257 = system: UACC-257
# UACC-62 = system: UACC-62
# UO-31 = system: UO-31
compound,measurement,setting,value
CCN(CC)CCOCCOCC1(c2ccc(Cl)c(Cl)c2)CCCCC1,GI50,786-0,3.28 µM (inactive)
same,GI50,A498,13.1 µM (inactive)
same,GI50,A549,10.9 µM (inactive)
same,GI50,ACHN,15.2 µM (inactive)
same,GI50,BT-549,12.7 µM (inactive)
same,GI50,CAKI-1,10.1 µM (inactive)
same,GI50,CCRF-CEM,2.99 µM (inactive)
same,GI50,COLO 205,4.41 µM (inactive)
same,GI50,DU-145,8.71 µM (inactive)
same,GI50,EKVX,8.17 µM (inactive)
same,GI50,HCC 2998,4.07 µM (inactive)
same,GI50,HCT-116,5.82 µM (inactive)
same,GI50,HCT-15,4.34 µM
same,GI50,HL-60,5.82 µM (inactive)
same,GI50,HOP-62,7.67 µM (inactive)
same,GI50,HOP-92,6.14 µM (inactive)
same,GI50,HT-29,2.29 µM (inactive)
same,GI50,Hs-578T,2.96 µM (inactive)
same,GI50,IGROV-1,8.43 µM (inactive)
same,GI50,K562,2.82 µM (inactive)
same,GI50,KM12,5.06 µM (inactive)
same,GI50,LOX IMVI,7.08 µM (inactive)
same,GI50,M14,1.7 µM (inactive)
same,GI50,MCF7,6.34 µM (inactive)
same,GI50,MDA-MB-231,10.8 µM (inactive)
same,GI50,MDA-MB-435,4 µM (inactive)
same,GI50,MDA-N,3.65 µM (inactive)
same,GI50,MOLT-4,4.99 µM (inactive)
same,GI50,Malme-3M,5.33 µM (inactive)
same,GI50,NCI-H226,17.9 µM (inactive)
same,GI50,NCI-H23,11 µM (inactive)
same,GI50,NCI-H460,3.39 µM (inactive)
same,GI50,NCI-H522,7.91 µM (inactive)
same,GI50,NCI/ADR-RES,11.4 µM (inactive)
same,GI50,OVCAR-3,8.67 µM (inactive)
same,GI50,OVCAR-4,12.6 µM (inactive)
same,GI50,OVCAR-5,11.5 µM (inactive)
same,GI50,OVCAR-8,13.8 µM (inactive)
same,GI50,PC-3,11.2 µM (inactive)
same,GI50,RPMI-8226,2.51 µM (inactive)
same,GI50,RXF 393,4.26 µM (inactive)
same,GI50,SF-268,11.8 µM (inactive)
same,GI50,SF-295,5.83 µM (inactive)
same,GI50,SF-539,11.2 µM (inactive)
same,GI50,SK-MEL-28,5.22 µM (inactive)
same,GI50,SK-MEL-2,14.9 µM (inactive)
same,GI50,SK-MEL-5,2.19 µM (inactive)
same,GI50,SK-OV-3,11.6 µM (inactive)
same,GI50,SN12C,11.9 µM (inactive)
same,GI50,SNB-19,13.4 µM (inactive)
same,GI50,SNB-75,7.64 µM (inactive)
same,GI50,SR,11 µM (inactive)
same,GI50,SW-620,5.61 µM (inactive)
same,GI50,T47D,3.48 µM (inactive)
same,GI50,TK-10,9.38 µM (inactive)
same,GI50,U-251,9.25 µM (inactive)
same,GI50,UACC-257,2.88 µM (inactive)
same,GI50,UACC-62,8.87 µM (inactive)
same,GI50,UO-31,5.12 µM (inactive)
O=C(N/N=C\C=C\c1ccc([N+](=O)[O-])o1)C(=O)N/N=C\C=C\c1ccc([N+](=O)[O-])o1,GI50,786-0,> 100 µM (inactive)
same,GI50,A498,> 100 µM (inactive)
same,GI50,A549,> 100 µM (inactive)
same,GI50,ACHN,> 100 µM (inactive)
same,GI50,BT-549,> 100 µM (inactive)
same,GI50,CAKI-1,> 100 µM (inactive)
same,GI50,CCRF-CEM,1.36 µM (inactive)
same,GI50,COLO 205,> 100 µM (inactive)
same,GI50,DU-145,> 100 µM (inactive)
same,GI50,EKVX,> 100 µM (inactive)
same,GI50,HCC 2998,> 100 µM (inactive)
same,GI50,HCT-116,25.1 µM (inactive)
same,GI50,HCT-15,81.7 µM
same,GI50,HL-60,20 µM (inactive)
same,GI50,HOP-62,82.2 µM (inactive)
same,GI50,HOP-92,> 100 µM (inactive)
same,GI50,HT-29,> 100 µM (inactive)
same,GI50,Hs-578T,> 100 µM (inactive)
same,GI50,IGROV-1,78.2 µM (inactive)
same,GI50,K562,> 100 µM (inactive)
same,GI50,KM12,> 100 µM (inactive)
same,GI50,LOX IMVI,4.94 µM (inactive)
same,GI50,M14,32.1 µM (inactive)
same,GI50,MCF7,44.1 µM (inactive)
same,GI50,MDA-MB-231,> 100 µM (inactive)
same,GI50,MDA-MB-435,> 100 µM (inactive)
same,GI50,MDA-N,> 100 µM (inactive)
same,GI50,MOLT-4,24.1 µM (inactive)
same,GI50,Malme-3M,> 100 µM (inactive)
same,GI50,NCI-H226,> 100 µM (inactive)
same,GI50,NCI-H23,> 100 µM (inactive)
same,GI50,NCI-H460,> 100 µM (inactive)
same,GI50,NCI-H522,> 100 µM (inactive)
same,GI50,NCI/ADR-RES,26 µM (inactive)
same,GI50,OVCAR-3,24.1 µM (inactive)
same,GI50,OVCAR-4,34.9 µM (inactive)
same,GI50,OVCAR-5,> 100 µM (inactive)
same,GI50,OVCAR-8,23.2 µM (inactive)
same,GI50,PC-3,> 100 µM (inactive)
same,GI50,RPMI-8226,28.4 µM (inactive)
same,GI50,RXF 393,> 100 µM (inactive)
same,GI50,SF-268,> 100 µM (inactive)
same,GI50,SF-295,> 100 µM (inactive)
same,GI50,SF-539,3.19 µM (inactive)
same,GI50,SK-MEL-28,> 100 µM (inactive)
same,GI50,SK-MEL-2,> 100 µM (inactive)
same,GI50,SK-MEL-5,> 100 µM (inactive)
same,GI50,SK-OV-3,> 100 µM (inactive)
same,GI50,SN12C,> 100 µM (inactive)
same,GI50,SNB-19,> 100 µM (inactive)
same,GI50,SNB-75,> 100 µM (inactive)
same,GI50,SR,35.5 µM (inactive)
same,GI50,SW-620,24.5 µM (inactive)
same,GI50,T47D,36.2 µM (inactive)
same,GI50,TK-10,56.9 µM (inactive)
same,GI50,U-251,> 100 µM (inactive)
same,GI50,UACC-257,> 100 µM (inactive)
same,GI50,UACC-62,> 100 µM (inactive)
same,GI50,UO-31,> 100 µM (inactive)
CCOC(=O)[C@@H]1[C@@H]2NC(=O)N[C@@]1(C)Oc1ccccc12,GI50,786-0,> 100 µM (inactive)
same,GI50,A498,> 100 µM (inactive)
same,GI50,ACHN,> 100 µM (inactive)
same,GI50,BT-549,> 100 µM (inactive)
same,GI50,CAKI-1,> 100 µM (inactive)
same,GI50,CCRF-CEM,> 100 µM (inactive)
same,GI50,COLO 205,> 100 µM (inactive)
same,GI50,DU-145,> 100 µM (inactive)
same,GI50,EKVX,> 100 µM (inactive)
same,GI50,HCC 2998,> 100 µM (inactive)
same,GI50,HCT-116,> 100 µM (inactive)
same,GI50,HCT-15,> 100 µM
same,GI50,HL-60,> 100 µM (inactive)
same,GI50,HOP-62,> 100 µM (inactive)
same,GI50,HOP-92,> 100 µM (inactive)
same,GI50,HT-29,> 100 µM (inactive)
same,GI50,Hs-578T,> 100 µM (inactive)
same,GI50,IGROV-1,> 100 µM (inactive)
same,GI50,K562,> 100 µM (inactive)
same,GI50,KM12,> 100 µM (inactive)
same,GI50,LOX IMVI,> 100 µM (inactive)
same,GI50,M14,> 100 µM (inactive)
same,GI50,MCF7,> 100 µM (inactive)
same,GI50,MDA-MB-231,> 100 µM (inactive)
same,GI50,MDA-MB-435,> 100 µM (inactive)
same,GI50,MDA-N,> 100 µM (inactive)
same,GI50,MOLT-4,> 100 µM (inactive)
same,GI50,Malme-3M,> 100 µM (inactive)
same,GI50,NCI-H226,> 100 µM (inactive)
same,GI50,NCI-H23,> 100 µM (inactive)
same,GI50,NCI-H460,> 100 µM (inactive)
same,GI50,NCI-H522,> 100 µM (inactive)
same,GI50,NCI/ADR-RES,> 100 µM (inactive)
same,GI50,OVCAR-3,> 100 µM (inactive)
same,GI50,OVCAR-4,> 100 µM (inactive)
same,GI50,OVCAR-5,> 100 µM (inactive)
same,GI50,OVCAR-8,> 100 µM (inactive)
same,GI50,PC-3,> 100 µM (inactive)
same,GI50,RPMI-8226,> 100 µM (inactive)
same,GI50,RXF 393,> 100 µM (inactive)
same,GI50,SF-268,> 100 µM (inactive)
same,GI50,SF-295,> 100 µM (inactive)
same,GI50,SF-539,> 100 µM (inactive)
same,GI50,SK-MEL-28,> 100 µM (inactive)
same,GI50,SK-MEL-2,> 100 µM (inactive)
same,GI50,SK-MEL-5,> 100 µM (inactive)
same,GI50,SK-OV-3,> 100 µM (inactive)
same,GI50,SN12C,> 100 µM (inactive)
same,GI50,SNB-19,> 100 µM (inactive)
same,GI50,SNB-75,> 100 µM (inactive)
same,GI50,SR,> 100 µM (inactive)
same,GI50,SW-620,> 100 µM (inactive)
same,GI50,T47D,> 100 µM (inactive)
same,GI50,TK-10,> 100 µM (inactive)
same,GI50,U-251,> 100 µM (inactive)
same,GI50,UACC-257,> 100 µM (inactive)
same,GI50,UACC-62,> 100 µM (inactive)
same,GI50,UO-31,> 100 µM (inactive)
